What was measured:
Assay type in all cases: cell-based
[1] = biological target: ER (estrogen receptor) (Homo sapiens (Human), UniProt P03372); assay: Inhibition of binding of E to ER (MCF-7/ERE-luciferase reporter cells); conditions: MCF-7/ERE-luciferase cells, 0.1 nM estradiol, 24 h
Experimental: The compounds of the present disclosure can inhibit the binding of E (estrogen) to ER (estrogen receptor), thereby blocking the binding of the complex of E and ER to ERE (estrogen response element), and consequently the expression of downstream luciferase proteins. The inhibitory effects of the compounds of the present disclosure on the binding of E to ER was tested by using the following method.
An ERE was cloned upstream of the luciferase gene, and MCF-7/ERE-luciferase monoclonal cells were selected by transfection of MCF-7 (TCHu74, National Collection of Authenticated Cell Cultures). The MCF-7/ERE-luciferase cells were seeded into a 96-well plate with an MEM (hyclone, SH30024.01B) medium containing 10% charcoal stripped FBS (Moregate, FBSF), 1% sodium pyruvate (sigma, S8636), 1% non-essential amino acids (sigma, M7145) and 500 μg/mL G418 at a density of 30,000 cells/well and cultured at 37° C. with 5% CO2. 20 mM stock solutions of the drugs are prepared, serially diluted 10-fold with 100% DMSO, and then diluted 20-fold with the medium. After the cells were cultured for 24 h, the medium was removed. 0.1 nM estradiol (sigma, E2758) and 10 μL of a medium-diluted drug were added to each well, and DMSO was added to the control group. The mixtures were well mixed by gentle shaking. The cells were cultured in an incubator at 37° C. with 5% CO2 for 24 h, and then the cell culture liquid was removed, followed by the addition of 50 μL of a luciferase substrate (Promega, E6110) to each well. The plate was let stand at room temperature in the dark for 10-15 min, and the chemiluminescence signal values were determined.
The inhibitory effects of the compounds of the present disclosure on the binding of E to ER were tested through the above experiment. The chemiluminescence signal value was plotted against the compound concentration (in log form) using Graphpad Prism, and the IC50 values of the compounds were obtained.

[2] = system: MCF-7 cells; assay: Inhibition of proliferation of MCF-7 cells (ATP method, Cell Titer-Glo); conditions: for IC50: Homo sapiens, MCF7, MCF-7 cells, 72 h; for inhibitory effects on the proliferation of MCF-7 cells (in words): conclusion
Experimental: This experiment was intended to test the inhibitory effects of the compounds disclosed herein on the proliferation of MCF-7 Cells by using the ATP method, and to evaluate the in vitro activity of the compounds according to the IC50 values.
MCF-7 cells (TCHu74, National Collection of Authenticated Cell Cultures) were seeded into a 96-well plate with an MEM (hyclone, SH30024.01B) medium containing 10% FBS (Gibco, 10099-141), 1% sodium pyruvate (sigma, 58636) and 1% non-essential amino acid (sigma, M7145) at a density of 4,000 cells/well and cultured at 37° C. with 5% CO2. 20 mM stock solutions of the compounds are prepared, serially diluted with 100% DMSO to a final concentration of 1000×, and then diluted 20-fold with a medium containing 2% FBS. After the cells were cultured for 24 h, the medium was removed. 90 μL of the medium containing 2% FBS and 10 μL of a drug were added to each well, and 10 μL of DMSO was added to the control group. The mixtures were well mixed by gentle shaking. The blank group contained only 100 μL of the medium containing 2% FBS. The cells were cultured in an incubator at 37° C. with 5% CO2 for 72 h, and then 50 μL of mixed Cell Titer-Glo (Promega, G7571) was added to each well. The mixtures were well mixed by shaking and let stand at room temperature for 10 min, and the chemiluminescence signal values were determined.
The chemiluminescence signal value was plotted against the compound concentration (in log form) using Graphpad Prism, and the IC50 values of the compounds were obtained.

[3] = biological target: ERα (Homo sapiens (Human), UniProt P03372); assay: Degradation of ERα in MCF-7 cells (ELISA); conditions: for DC50: MCF-7 cells, 16 to 18 h, read-out: EC50 (nM), degradation of ERα; for degradation of ERα (in words): conclusion
Experimental: ERα-positive breast cancer cell line MCF-7 cells were cultured in a DMEM/F12 medium (HyClone, SH30023.01) containing 10% fetal bovine serum (Corning, 35-010-CV). […] The following day the compounds were serially diluted with DMSO and further diluted with the phenol red-free DMEM/F12 medium containing 5% charcoal-stripped fetal bovine serum. 20 μL of a diluted compound was added to each well of the 48-well plate at final concentrations of 3000, 300, 30, 3, 0.3, 0.03 and 0.003 nM. The 48-well plate was placed in the incubator for 16 to 18 h. A 96-well plate was coated with the capture antibody from the human ERα/NR3A1 total protein assay kit (R&D, DYC5715-5). […] The plate was placed in an incubator at 26° C. overnight. On day 3, the antibody-coated 96-well plate was washed once with PBS, and 200 μL of PBS containing 1% BSA was added to each well. The plate was incubated in an incubator at 37° C. for 1.5 h to be blocked. The cell culture medium supernatant was discarded. The cells were washed once with PBS, and 60 μL of a cell lysis buffer was added to each well. […] The cells were lysed on ice for 15 min, and 300 μL of PBS containing 1 mM EDTA and 0.5% TritonX-100 was added to each well to dilute the urea to 1 M. The blocking buffer in the blocked 96-well plate was discarded, and 100 μL of diluted cell lysis buffer was added to each well. The plate was incubated in an incubator at 37° C. for 2 h and washed 5 times with PBS. A biotinylated assay antibody was diluted to 0.4 μg/mL with PBS containing 1% BSA, and then 100 μL of the assay antibody was added to each well. The plate was incubated in an incubator at 37° C. for 1 h. The plate was then washed five more times, and 100 μL of avidin-HRP diluted 200-fold with PBS containing 1% BSA was added to each well. The plate was incubated at 37° C. for 30 min. The plate was washed five more times, and 100 μL of TMB substrate was added to each well. The plate was incubated at room temperature until blue color appeared, and 100 μL of stop solution was added to each well. OD450 signal values were read using a PHERAstar multi-mode microplate reader. The IC50 values for the inhibitory activity of the compounds were calculated using Graphpad Prism software.

Chain of ERα (P03372 whole entry): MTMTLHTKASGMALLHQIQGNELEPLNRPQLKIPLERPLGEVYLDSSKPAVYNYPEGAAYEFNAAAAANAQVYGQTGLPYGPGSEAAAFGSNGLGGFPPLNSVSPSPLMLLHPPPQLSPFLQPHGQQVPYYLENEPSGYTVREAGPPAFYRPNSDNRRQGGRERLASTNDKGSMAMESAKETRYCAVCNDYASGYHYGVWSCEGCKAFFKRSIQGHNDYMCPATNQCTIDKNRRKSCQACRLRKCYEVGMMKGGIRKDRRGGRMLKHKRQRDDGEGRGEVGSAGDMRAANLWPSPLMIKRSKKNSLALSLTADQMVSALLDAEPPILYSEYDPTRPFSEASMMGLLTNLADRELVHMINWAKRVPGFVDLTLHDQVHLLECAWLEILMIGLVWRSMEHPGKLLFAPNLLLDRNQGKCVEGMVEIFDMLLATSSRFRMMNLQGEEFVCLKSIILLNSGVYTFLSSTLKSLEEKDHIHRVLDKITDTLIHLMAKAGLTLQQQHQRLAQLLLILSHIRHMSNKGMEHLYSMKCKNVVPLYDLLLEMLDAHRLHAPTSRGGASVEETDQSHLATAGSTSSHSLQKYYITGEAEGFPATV
Chain of ER (estrogen receptor) (P03372 whole entry): as above

IC50 [1]	IC50 [2]	DC50 [3]	degradation of ERα (in words) [3]	Compound	inhibitory effects on the proliferation of MCF-7 cells (in words) [2]
0.27 nM				C[C@@H]1Cc2cc3c(cc2[C@@H](c2ccc(NC4CN(CCCF)C4)cc2)N1CC(F)(F)F)OCO3 [Example 16, 1-(3-Fluoropropyl)-N-(4-((5R,7R)-7-methyl-6-(2,2,2-trifluoroethyl)-5,6,7,8-tetrahydro-[1,3]dioxolo[4,5-g]isoquinolin-5-yl)phenyl)azetidin-3-amine]	
	> 10000 nM	> 10000 nM	no activity	C[C@@H]1Cc2ccc3c(c2[C@@H](c2ccc(NC4CN(CCCF)C4)cn2)N1CC(F)(F)CO)C(=O)NC3=O [Example 20, (7R,9S)-8-(2,2-difluoro-3-hydroxypropyl)-9-(5-((1-(3-fluoropropyl)azetidin-3-yl)amino)pyridin-2-yl)-7-methyl-6,7,8,9-tetrahydro-1H-pyrrolo[3,4-h]isoquinoline-1,3(2H)-dione, reference compound]	no activity
	> 10000 nM	> 10000 nM	no activity	C[C@@H]1Cc2ccc3c(=O)[nH][nH]c(=O)c3c2[C@@H](c2ccc(NC3CN(CCCF)C3)cn2)N1CC(F)(F)CO [Example 21, reference compound]	no activity
